Experimental data: patent US11331299B2, “Medicinal use of serrulatane diterpenes” (The University of Sydney, priority 2016, dated 2022)
Like-named read-outs stand apart in the source and are kept apart here.

Tested on: 280 human cancer cell lines
Experiment: OncoPanel cell proliferation assay (10-day)
Type: cell-based
Conditions: Homo sapiens; for GI50: read-out: Cell Count GI50; for IC50: read-out: Cell Count IC50; for EC50: read-out: Cell Count EC50
[1] = KHOS-240S, Soft Tissue - Osteosarcoma
[2] = ME-180, ME-180, Female GU - Ovary
[3] = MG-63, MG-63, Soft Tissue - Osteosarcoma
[4] = MHH-PREB-1, MHH-PREB-1, Leukemia
[5] = MIA PaCa-2, Mia PaCa-2, Pancreas
[6] = MS751, MS751, Female GU - Ovary
[7] = Malme-3M, MALME3M, Skin (Melanoma)

**Q.** How did the GI50 [1] turn out when `CC(C)=CCC[C@H](C)[C@@H]1CC[C@@H](C)c2c1cc(C)c(O)c2O` [Compound 4, 7,8-dihydroxyserrulat-14-ene] was run?
**A.** The GI50 was 4.96 µM.

**Q.** And the IC50 [1]?
**A.** Its IC50 is 4.96 µM.

**Q.** What about the EC50 (KLE, Female GU - Uterus) of the same compound?
**A.** Its EC50 is 18.2 µM.

**Q.** What about the GI50 (KLE, Female GU - Uterus) of the same compound?
**A.** The GI50 was 16.6 µM.

**Q.** What about the IC50 (KLE, Female GU - Uterus) of the same compound?
**A.** The IC50 was 18.2 µM.

**Q.** And the EC50 (KPL-1, KPL-1, Breast)?
**A.** Its EC50 is 4.18 µM.

**Q.** And the GI50 (KPL-1, KPL-1, Breast)?
**A.** The GI50 was 4.13 µM.

**Q.** What about the IC50 (KPL-1, KPL-1, Breast) of the same compound?
**A.** The IC50 was 4.18 µM.

**Q.** What about the EC50 (KU812, KU812, Leukemia) of the same compound?
**A.** Its EC50 is 9.5 µM.

**Q.** And the GI50 (KU812, KU812, Leukemia)?
**A.** Its GI50 is 9.13 µM.

**Q.** And the IC50 (KU812, KU812, Leukemia)?
**A.** The IC50 was 9.5 µM.

**Q.** And the EC50 (L-428, L-428, Lymphoma)?
**A.** The EC50 was 2.07 µM.

**Q.** And the GI50 (L-428, L-428, Lymphoma)?
**A.** The GI50 was 2.06 µM.

**Q.** And the IC50 (L-428, L-428, Lymphoma)?
**A.** The IC50 was 2.07 µM.

**Q.** And the EC50 (LNCaP, Prostate)?
**A.** The EC50 was 11.5 µM.

**Q.** What about the GI50 (LNCaP, Prostate) of the same compound?
**A.** The GI50 was 12.4 µM.

**Q.** What about the IC50 (LNCaP, Prostate) of the same compound?
**A.** Its IC50 is 12.9 µM.

**Q.** And the EC50 (LS-123, LS123, Colon)?
**A.** The EC50 was 12 µM.

**Q.** What about the GI50 (LS-123, LS123, Colon) of the same compound?
**A.** Its GI50 is 10.7 µM.

**Q.** And the IC50 (LS-123, LS123, Colon)?
**A.** The IC50 was 12 µM.

**Q.** And the EC50 (LS-411N, LS411N, Colon)?
**A.** The EC50 was 23.1 µM.

**Q.** And the GI50 (LS-411N, LS411N, Colon)?
**A.** Its GI50 is 22.6 µM.

**Q.** What about the IC50 (LS-411N, LS411N, Colon) of the same compound?
**A.** The IC50 was 23.1 µM.

**Q.** What about the EC50 (LS-1034, LS1034, Colon) of the same compound?
**A.** Its EC50 is 23.6 µM.

**Q.** And the GI50 (LS-1034, LS1034, Colon)?
**A.** The GI50 was 23.5 µM.

**Q.** And the IC50 (LS-1034, LS1034, Colon)?
**A.** The IC50 was 23.6 µM.

**Q.** What about the EC50 (M059J, CNS - Glioma) of the same compound?
**A.** Its EC50 is 13 µM.

**Q.** And the GI50 (M059J, CNS - Glioma)?
**A.** Its GI50 is 12.9 µM.

**Q.** And the IC50 (M059J, CNS - Glioma)?
**A.** The IC50 was 13 µM.

**Q.** And the EC50 (MC116, MC116, Lymphoma)?
**A.** Its EC50 is 12.5 µM.

**Q.** What about the GI50 (MC116, MC116, Lymphoma) of the same compound?
**A.** The GI50 was 12.4 µM.

**Q.** What about the IC50 (MC116, MC116, Lymphoma) of the same compound?
**A.** Its IC50 is 12.5 µM.

**Q.** And the EC50 (MC-IXC, CNS - Neuroblastoma)?
**A.** Its EC50 is 6.88 µM.

**Q.** And the GI50 (MC-IXC, CNS - Neuroblastoma)?
**A.** Its GI50 is 6.88 µM.

**Q.** What about the IC50 (MC-IXC, CNS - Neuroblastoma) of the same compound?
**A.** The IC50 was 6.88 µM.

**Q.** What about the EC50 (MCF7, MCF7, Breast) of the same compound?
**A.** The EC50 was 12.1 µM.

**Q.** What about the GI50 (MCF7, MCF7, Breast) of the same compound?
**A.** Its GI50 is 11.9 µM.

**Q.** And the IC50 (MCF7, MCF7, Breast)?
**A.** The IC50 was 12.1 µM.

**Q.** What about the EC50 (MDA-MB-231, MDA MB 231, Breast) of the same compound?
**A.** Its EC50 is 11.4 µM.

**Q.** What about the GI50 (MDA-MB-231, MDA MB 231, Breast) of the same compound?
**A.** Its GI50 is 11.3 µM.

**Q.** And the IC50 (MDA-MB-231, MDA MB 231, Breast)?
**A.** The IC50 was 11.4 µM.

**Q.** And the EC50 (MDA-MB-436, MDA-MB-436, Breast)?
**A.** Its EC50 is 10.3 µM.

**Q.** And the GI50 (MDA-MB-436, MDA-MB-436, Breast)?
**A.** Its GI50 is 10.2 µM.

**Q.** What about the IC50 (MDA-MB-436, MDA-MB-436, Breast) of the same compound?
**A.** Its IC50 is 10.3 µM.

**Q.** What about the EC50 (MDA-MB-453, MDA MB 453, Breast) of the same compound?
**A.** Its EC50 is 3.76 µM.

**Q.** And the GI50 (MDA-MB-453, MDA MB 453, Breast)?
**A.** Its GI50 is 3.68 µM.

**Q.** And the IC50 (MDA-MB-453, MDA MB 453, Breast)?
**A.** The IC50 was 3.76 µM.

**Q.** What about the EC50 (MDA-MB-468, MDA MB 468, Breast) of the same compound?
**A.** The EC50 was 7.41 µM.

**Q.** What about the GI50 (MDA-MB-468, MDA MB 468, Breast) of the same compound?
**A.** The GI50 was 7.34 µM.

**Q.** What about the IC50 (MDA-MB-468, MDA MB 468, Breast) of the same compound?
**A.** Its IC50 is 7.43 µM.

**Q.** What about the EC50 [2] of the same compound?
**A.** Its EC50 is 25.3 µM.

**Q.** What about the GI50 [2] of the same compound?
**A.** Its GI50 is 25.2 µM.

**Q.** What about the IC50 [2] of the same compound?
**A.** The IC50 was 25.3 µM.

**Q.** What about the EC50 (MEG-01, MEG01, Leukemia) of the same compound?
**A.** The EC50 was 8.39 µM.

**Q.** And the GI50 (MEG-01, MEG01, Leukemia)?
**A.** Its GI50 is 8.37 µM.

**Q.** And the IC50 (MEG-01, MEG01, Leukemia)?
**A.** Its IC50 is 8.39 µM.

**Q.** What about the EC50 (MES-SA, Soft Tissue - Sarcoma) of the same compound?
**A.** The EC50 was 6.49 µM.

**Q.** And the GI50 (MES-SA, Soft Tissue - Sarcoma)?
**A.** The GI50 was 6.44 µM.

**Q.** And the IC50 (MES-SA, Soft Tissue - Sarcoma)?
**A.** Its IC50 is 6.49 µM.

**Q.** And the EC50 [3]?
**A.** Its EC50 is 11.2 µM.

**Q.** What about the GI50 [3] of the same compound?
**A.** Its GI50 is 11.1 µM.

**Q.** And the IC50 [3]?
**A.** The IC50 was 11.2 µM.

**Q.** And the EC50 [4]?
**A.** The EC50 was 5.71 µM.

**Q.** What about the GI50 [4] of the same compound?
**A.** Its GI50 is 5.71 µM.

**Q.** What about the IC50 [4] of the same compound?
**A.** The IC50 was 5.71 µM.

**Q.** And the EC50 [5]?
**A.** Its EC50 is 11 µM.

**Q.** And the GI50 [5]?
**A.** Its GI50 is 11 µM.

**Q.** What about the IC50 [5] of the same compound?
**A.** The IC50 was 11 µM.

**Q.** What about the EC50 (MOLT-3, MOLT-3, Leukemia) of the same compound?
**A.** The EC50 was 3.15 µM.

**Q.** What about the GI50 (MOLT-3, MOLT-3, Leukemia) of the same compound?
**A.** The GI50 was 3.13 µM.

**Q.** And the IC50 (MOLT-3, MOLT-3, Leukemia)?
**A.** The IC50 was 3.15 µM.

**Q.** And the EC50 (MOLT-16, MOLT-16, Leukemia)?
**A.** Its EC50 is 4.02 µM.

**Q.** What about the GI50 (MOLT-16, MOLT-16, Leukemia) of the same compound?
**A.** Its GI50 is 4.01 µM.

**Q.** And the IC50 (MOLT-16, MOLT-16, Leukemia)?
**A.** The IC50 was 4.02 µM.

**Q.** What about the EC50 [6] of the same compound?
**A.** The EC50 was 12.1 µM.

**Q.** What about the GI50 [6] of the same compound?
**A.** Its GI50 is 12 µM.

**Q.** What about the IC50 [6] of the same compound?
**A.** Its IC50 is 12.1 µM.

**Q.** What about the EC50 (MT-3, Colon) of the same compound?
**A.** Its EC50 is 23.9 µM.

**Q.** And the GI50 (MT-3, Colon)?
**A.** Its GI50 is 23.8 µM.

**Q.** And the IC50 (MT-3, Colon)?
**A.** The IC50 was 23.9 µM.

**Q.** And the EC50 (MV4-11, MV-4-11, Leukemia)?
**A.** The EC50 was 3.81 µM.

**Q.** What about the GI50 (MV4-11, MV-4-11, Leukemia) of the same compound?
**A.** Its GI50 is 3.8 µM.

**Q.** What about the IC50 (MV4-11, MV-4-11, Leukemia) of the same compound?
**A.** Its IC50 is 3.81 µM.

**Q.** What about the EC50 (MX1, Leukemia) of the same compound?
**A.** Its EC50 is 2.46 µM.

**Q.** What about the GI50 (MX1, Leukemia) of the same compound?
**A.** The GI50 was 2.46 µM.

**Q.** What about the IC50 (MX1, Leukemia) of the same compound?
**A.** The IC50 was 2.46 µM.

**Q.** What about the EC50 [7] of the same compound?
**A.** The EC50 was 20.6 µM.

**Q.** And the GI50 [7]?
**A.** The GI50 was 17.8 µM.

**Q.** What about the IC50 [7] of the same compound?
**A.** The IC50 was 20.6 µM.

**Q.** And the EC50 (MeWo, Skin (Melanoma))?
**A.** The EC50 was 9.66 µM.

**Q.** And the GI50 (MeWo, Skin (Melanoma))?
**A.** The GI50 was 9.51 µM.

**Q.** What about the IC50 (MeWo, Skin (Melanoma)) of the same compound?
**A.** The IC50 was 9.66 µM.

**Q.** What about the EC50 (NALM-6, NALM-6, Leukemia) of the same compound?
**A.** The EC50 was 2.61 µM.

**Q.** And the GI50 (NALM-6, NALM-6, Leukemia)?
**A.** The GI50 was 2.61 µM.

**Q.** What about the IC50 (NALM-6, NALM-6, Leukemia) of the same compound?
**A.** The IC50 was 2.61 µM.

**Q.** And the EC50 (NAMALWA, Lymphoma)?
**A.** Its EC50 is 3.91 µM.

**Q.** What about the GI50 (NAMALWA, Lymphoma) of the same compound?
**A.** The GI50 was 3.9 µM.

**Q.** What about the IC50 (NAMALWA, Lymphoma) of the same compound?
**A.** Its IC50 is 3.91 µM.

**Q.** And the EC50 (NCI-H69, NCI-H69, Lung - SCLC)?
**A.** Its EC50 is 15.9 µM.

**Q.** What about the GI50 (NCI-H69, NCI-H69, Lung - SCLC) of the same compound?
**A.** The GI50 was 15.1 µM.

**Q.** What about the IC50 (NCI-H69, NCI-H69, Lung - SCLC) of the same compound?
**A.** The IC50 was 15.9 µM.
